# Measurements published in PMC8944975, “Secretin Receptor as a Target in Gastrointestinal Cancer: Expression Analysis and Ligand Development” (Biomedicines, 2022).
# Where a SMILES comes first, the peptide text is derived from it. [ ]: non-standard residue; d: D form.
# Biological target: human SCTR (Homo sapiens, UniProt P47872)
# Assay: β-arr2-GFP translocation assay run in antagonist mode; on IC50, inhibition of β-arr2-GFP translocation (Table 3): peptide 5 min at 37 °C
# Format: cell-based
# Parameters: expressed in transfected cells; host or cells: U2OS (human osteosarcoma), stably co-transfected with β-arrestin2-GFP
# Conditions: read-out: IC50, inhibition of β-arr2-GFP translocation (Table 2)
# Text: U2OS-SCTR/β-arr2-GFP: human osteosarcoma cell line U2OS (purchased from ATCC/LGC Standards, Wesel, Germany) were stably transfected with plasmids encoding SCTR (Homo sapiens) and the fusion protein β-arrestin2-green fluorescent protein (GFP) (Rattus norvegicus-Aequorea victoria) (β-arr2-GFP).
# For analysis of antagonistic effects on SCTR, a slightly modified protocol of the β-arr2-GFP translocation was used. […] For analysis, cells were terminally fixed and permeabilized as previously described. The additional monitoring of IDCC fluorescence in the near-infrared channel (667 nm) provided another measure for receptor binding and activation.
# human SCTR, sequence (P47872 23-440): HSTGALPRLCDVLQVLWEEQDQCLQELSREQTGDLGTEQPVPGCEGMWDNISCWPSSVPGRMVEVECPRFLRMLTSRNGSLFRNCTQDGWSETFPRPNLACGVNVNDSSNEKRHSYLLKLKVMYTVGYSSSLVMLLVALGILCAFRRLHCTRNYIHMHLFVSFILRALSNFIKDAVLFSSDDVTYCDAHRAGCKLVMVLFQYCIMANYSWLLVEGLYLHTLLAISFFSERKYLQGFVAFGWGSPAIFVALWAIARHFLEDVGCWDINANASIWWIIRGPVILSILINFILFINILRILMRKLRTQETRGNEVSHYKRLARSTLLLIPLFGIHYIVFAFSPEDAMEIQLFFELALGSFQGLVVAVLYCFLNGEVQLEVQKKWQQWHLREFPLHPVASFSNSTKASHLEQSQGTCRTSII
row,Compound,IC50 [nM]
1,CC(C)C[C@H](NC(=O)CNC(=O)[C@H](CCC(N)=O)NC(=O)[C@H](CC(C)C)NC(=O)[C@H](CC(C)C)NC(=O)[C@H](CCCNC(=N)N)NC(=O)[C@H](CCC(N)=O)NC(=O)[C@H](CC(C)C)NC(=O)[C@H](CCCNC(=N)N)NC(=O)[C@H](C)NC(=O)CNC(=O)[C@H](CCC(=O)O)NC(=O)[C@H](CCCNC(=N)N)NC(=O)[C@H](CC(C)C)NC(=O)[C@H](CCCNC(=N)N)NC(=O)[C@H](CO)NC(=O)[C@H](CC(C)C)NC(=O)[C@H](CCC(=O)O)NC(=O)[C@H](CO)NC(=O)[C@@H](NC(=O)[C@@H](N)Cc1ccccc1)[C@@H](C)O)C(=O)N[C@H](C(=O)O)C(C)C [Peptide 119],2340 ± 366

# Same assay, conditions: read-out: IC50, inhibition of β-arr2-GFP translocation (Table 3)
row,Compound,IC50 [nM]
1,CC(C)C[C@H](NC(=O)CNC(=O)[C@H](CCC(N)=O)NC(=O)[C@H](CC(C)C)NC(=O)[C@H](CC(C)C)NC(=O)[C@H](CCCNC(=N)N)NC(=O)[C@H](CCC(N)=O)NC(=O)[C@H](CC(C)C)NC(=O)[C@H](CCCNC(=N)N)NC(=O)[C@H](C)NC(=O)CNC(=O)[C@H](CCC(=O)O)NC(=O)[C@H](C)NC(=O)[C@H](CC(C)C)NC(=O)[C@H](CCCNC(=N)N)NC(=O)[C@H](CO)NC(=O)[C@H](CC(C)C)NC(=O)[C@H](CCC(=O)O)NC(=O)[C@H](CO)NC(=O)[C@@H](NC(=O)[C@H](Cc1ccccc1)NC(=O)[C@H](N)CCCNC(=N)N)[C@@H](C)O)C(=O)N[C@H](C(=O)O)C(C)C [Peptide 134] (H-[dR]FTSELSRLAEGARLQRLLQGLV-OH),1580 ± 77
2,CC(C)C[C@H](NC(=O)CNC(=O)[C@H](CCC(N)=O)NC(=O)[C@H](CC(C)C)NC(=O)[C@H](CC(C)C)NC(=O)[C@H](CCCNC(=N)N)NC(=O)[C@H](CCC(N)=O)NC(=O)[C@H](CC(C)C)NC(=O)[C@H](CCCNC(=N)N)NC(=O)[C@H](C)NC(=O)CNC(=O)[C@H](CCC(=O)O)NC(=O)[C@H](CCCNC(=N)N)NC(=O)[C@H](CC(C)C)NC(=O)[C@H](C)NC(=O)[C@H](CO)NC(=O)[C@H](CC(C)C)NC(=O)[C@H](CCC(=O)O)NC(=O)[C@H](CO)NC(=O)[C@@H](NC(=O)[C@H](Cc1ccccc1)NC(=O)[C@H](N)CCCNC(=N)N)[C@@H](C)O)C(=O)N[C@H](C(=O)O)C(C)C [Peptide 132] (H-[dR]FTSELSALREGARLQRLLQGLV-OH),2480 ± 579
3,CC(C)C[C@H](NC(=O)CNC(=O)[C@H](CCC(N)=O)NC(=O)[C@H](CC(C)C)NC(=O)[C@H](CC(C)C)NC(=O)[C@H](CCCNC(=N)N)NC(=O)[C@H](CCC(N)=O)NC(=O)[C@H](CC(C)C)NC(=O)[C@H](CCCNC(=N)N)NC(=O)[C@H](C)NC(=O)CNC(=O)[C@H](CCC(=O)O)NC(=O)[C@H](CCCNC(=N)N)NC(=O)[C@H](CC(C)C)NC(=O)[C@H](CCCNC(=N)N)NC(=O)[C@H](CO)NC(=O)[C@H](CC(C)C)NC(=O)[C@H](CCC(=O)O)NC(=O)[C@H](CO)NC(=O)[C@@H](NC(=O)[C@H](Cc1ccccc1)NC(=O)[C@@H](N)CCCNC(=N)N)[C@@H](C)O)C(=O)N[C@H](C(=O)O)C(C)C [Peptide 124],924 ± 237
4,CC(C)C[C@H](NC(=O)CNC(=O)[C@H](CCC(N)=O)NC(=O)[C@H](CC(C)C)NC(=O)[C@H](CC(C)C)NC(=O)[C@H](CCCNC(=N)N)NC(=O)[C@H](CCC(N)=O)NC(=O)[C@H](CC(C)C)NC(=O)[C@H](CCCNC(=N)N)NC(=O)[C@H](C)NC(=O)CNC(=O)[C@H](CCC(=O)O)NC(=O)[C@H](CCCNC(=N)N)NC(=O)[C@H](C)NC(=O)[C@H](CCCNC(=N)N)NC(=O)[C@H](CO)NC(=O)[C@H](CC(C)C)NC(=O)[C@H](CCC(=O)O)NC(=O)[C@H](CO)NC(=O)[C@@H](NC(=O)[C@H](Cc1ccccc1)NC(=O)[C@H](N)CCCNC(=N)N)[C@@H](C)O)C(=O)N[C@H](C(=O)O)C(C)C [Peptide 133] (H-[dR]FTSELSRAREGARLQRLLQGLV-OH),884 ± 169
5,CC(C)C[C@H](NC(=O)CNC(=O)[C@H](CCC(N)=O)NC(=O)[C@H](CC(C)C)NC(=O)[C@H](CC(C)C)NC(=O)[C@H](CCCNC(=N)N)NC(=O)[C@H](C)NC(=O)[C@H](CC(C)C)NC(=O)[C@H](CCCNC(=N)N)NC(=O)[C@H](C)NC(=O)CNC(=O)[C@H](CCC(=O)O)NC(=O)[C@H](CCCNC(=N)N)NC(=O)[C@H](CC(C)C)NC(=O)[C@H](CCCNC(=N)N)NC(=O)[C@H](CO)NC(=O)[C@H](CC(C)C)NC(=O)[C@H](CCC(=O)O)NC(=O)[C@H](CO)NC(=O)[C@@H](NC(=O)[C@H](Cc1ccccc1)NC(=O)[C@H](N)CCCNC(=N)N)[C@@H](C)O)C(=O)N[C@H](C(=O)O)C(C)C [Peptide 139] (H-[dR]FTSELSRLREGARLARLLQGLV-OH),1020 ± 107
6,CC(C)C[C@H](NC(=O)CNC(=O)[C@H](CCC(N)=O)NC(=O)[C@H](CC(C)C)NC(=O)[C@H](CC(C)C)NC(=O)[C@H](C)NC(=O)[C@H](CCC(N)=O)NC(=O)[C@H](CC(C)C)NC(=O)[C@H](CCCNC(=N)N)NC(=O)[C@H](C)NC(=O)CNC(=O)[C@H](CCC(=O)O)NC(=O)[C@H](CCCNC(=N)N)NC(=O)[C@H](CC(C)C)NC(=O)[C@H](CCCNC(=N)N)NC(=O)[C@H](CO)NC(=O)[C@H](CC(C)C)NC(=O)[C@H](CCC(=O)O)NC(=O)[C@H](CO)NC(=O)[C@@H](NC(=O)[C@H](Cc1ccccc1)NC(=O)[C@H](N)CCCNC(=N)N)[C@@H](C)O)C(=O)N[C@H](C(=O)O)C(C)C [Peptide 140] (H-[dR]FTSELSRLREGARLQALLQGLV-OH),1490 ± 218
7,CC(C)C[C@H](NC(=O)CNC(=O)[C@H](CCC(N)=O)NC(=O)[C@H](CC(C)C)NC(=O)[C@H](CC(C)C)NC(=O)[C@H](CCCNC(=N)N)NC(=O)[C@H](CCC(N)=O)NC(=O)[C@H](CC(C)C)NC(=O)[C@H](C)NC(=O)[C@H](C)NC(=O)CNC(=O)[C@H](CCC(=O)O)NC(=O)[C@H](CCCNC(=N)N)NC(=O)[C@H](CC(C)C)NC(=O)[C@H](CCCNC(=N)N)NC(=O)[C@H](CO)NC(=O)[C@H](CC(C)C)NC(=O)[C@H](CCC(=O)O)NC(=O)[C@H](CO)NC(=O)[C@@H](NC(=O)[C@H](Cc1ccccc1)NC(=O)[C@H](N)CCCNC(=N)N)[C@@H](C)O)C(=O)N[C@H](C(=O)O)C(C)C [Peptide 137] (H-[dR]FTSELSRLREGAALQRLLQGLV-OH),1860 ± 159
8,CC(C)C[C@H](NC(=O)CNC(=O)[C@H](CCC(N)=O)NC(=O)[C@H](CC(C)C)NC(=O)[C@H](CC(C)C)NC(=O)[C@H](CCCNC(=N)N)NC(=O)[C@H](CCC(N)=O)NC(=O)[C@H](CC(C)C)NC(=O)[C@H](CCCNC(=N)N)NC(=O)[C@H](C)NC(=O)CNC(=O)[C@H](CCC(=O)O)NC(=O)[C@H](CCCNC(=N)N)NC(=O)[C@H](CC(C)C)NC(=O)[C@H](CCCNC(=N)N)NC(=O)[C@H](CO)NC(=O)[C@H](CC(C)C)NC(=O)[C@H](CCC(=O)O)NC(=O)[C@H](CO)NC(=O)[C@H](C)NC(=O)[C@H](Cc1ccccc1)NC(=O)[C@H](N)CCCNC(=N)N)C(=O)N[C@H](C(=O)O)C(C)C [Peptide 127],1610 ± 185
9,CC(C)C[C@H](NC(=O)CNC(=O)[C@H](CCC(N)=O)NC(=O)[C@H](CC(C)C)NC(=O)[C@H](CC(C)C)NC(=O)[C@H](CCCNC(=N)N)NC(=O)[C@H](CCC(N)=O)NC(=O)[C@H](CC(C)C)NC(=O)[C@H](CCCNC(=N)N)NC(=O)[C@H](C)NC(=O)CNC(=O)[C@H](CCC(=O)O)NC(=O)[C@H](CCCNC(=N)N)NC(=O)[C@H](CC(C)C)NC(=O)[C@H](CCCNC(=N)N)NC(=O)[C@H](CO)NC(=O)[C@H](CC(C)C)NC(=O)[C@H](C)NC(=O)[C@H](CO)NC(=O)[C@@H](NC(=O)[C@H](Cc1ccccc1)NC(=O)[C@H](N)CCCNC(=N)N)[C@@H](C)O)C(=O)N[C@H](C(=O)O)C(C)C [Peptide 129] (H-[dR]FTSALSRLREGARLQRLLQGLV-OH),1140 ± 281
10,CC(C)C[C@H](NC(=O)CNC(=O)[C@H](CCC(N)=O)NC(=O)[C@H](CC(C)C)NC(=O)[C@H](CC(C)C)NC(=O)[C@H](CCCNC(=N)N)NC(=O)[C@H](CCC(N)=O)NC(=O)[C@H](CC(C)C)NC(=O)[C@H](CCCNC(=N)N)NC(=O)[C@H](C)NC(=O)CNC(=O)[C@H](CCC(=O)O)NC(=O)[C@H](CCCNC(=N)N)NC(=O)[C@H](CC(C)C)NC(=O)[C@H](CCCNC(=N)N)NC(=O)[C@H](C)NC(=O)[C@H](CC(C)C)NC(=O)[C@H](CCC(=O)O)NC(=O)[C@H](CO)NC(=O)[C@@H](NC(=O)[C@H](Cc1ccccc1)NC(=O)[C@H](N)CCCNC(=N)N)[C@@H](C)O)C(=O)N[C@H](C(=O)O)C(C)C [Peptide 131] (H-[dR]FTSELARLREGARLQRLLQGLV-OH),998 ± 142
11,CC(C)C[C@H](NC(=O)CNC(=O)[C@H](CCC(N)=O)NC(=O)[C@H](CC(C)C)NC(=O)[C@H](CC(C)C)NC(=O)[C@H](CCCNC(=N)N)NC(=O)[C@H](CCC(N)=O)NC(=O)[C@H](CC(C)C)NC(=O)[C@H](CCCNC(=N)N)NC(=O)[C@H](C)NC(=O)CNC(=O)[C@H](CCC(=O)O)NC(=O)[C@H](CCCNC(=N)N)NC(=O)[C@H](CC(C)C)NC(=O)[C@H](CCCNC(=N)N)NC(=O)[C@H](CO)NC(=O)[C@H](CC(C)C)NC(=O)[C@H](CCC(=O)O)NC(=O)[C@H](CO)NC(=O)[C@@H](NC(=O)[C@H](Cc1ccccc1)NC(=O)[C@H](N)CCCNC(=N)N)[C@@H](C)O)C(=O)N[C@H](C(=O)O)C(C)C [Peptide 125],1360 ± 322
12,CC(C)C[C@H](NC(=O)CNC(=O)[C@H](CCC(N)=O)NC(=O)[C@H](CC(C)C)NC(=O)[C@H](CC(C)C)NC(=O)[C@H](CCCNC(=N)N)NC(=O)[C@H](CCC(N)=O)NC(=O)[C@H](CC(C)C)NC(=O)[C@H](CCCNC(=N)N)NC(=O)[C@H](C)NC(=O)CNC(=O)[C@H](CCC(=O)O)NC(=O)[C@H](CCCNC(=N)N)NC(=O)[C@H](CC(C)C)NC(=O)[C@H](CCCNC(=N)N)NC(=O)[C@H](CO)NC(=O)[C@H](CC(C)C)NC(=O)[C@H](CCC(=O)O)NC(=O)[C@H](C)NC(=O)[C@@H](NC(=O)[C@H](Cc1ccccc1)NC(=O)[C@H](N)CCCNC(=N)N)[C@@H](C)O)C(=O)N[C@H](C(=O)O)C(C)C [Peptide 128] (H-[dR]FTAELSRLREGARLQRLLQGLV-OH),897 ± 108
